Laboratory results taken from publication PMC10408569, “Recruitment of hexahydroquinoline as anticancer scaffold targeting inhibition of wild and mutants EGFR (EGFR^WT, EGFR^T790M, and EGFR^L858R)” (Journal of Enzyme Inhibition and Medicinal Chemistry, 2023).

Experiments:
UACC-62 = test: NCI-60 anticancer screening (SRB); format: cell-based; conditions: Homo sapiens; UACC-62, melanoma; one dose 10 μM; read-out: Growth Inhibition Percentage (GI %)
MOLT-4 = test: NCI-60 anticancer screening (SRB); format: cell-based; conditions: Homo sapiens; MOLT-4, leukemia; one dose 10 μM; read-out: Growth Inhibition Percentage (GI %)
CAKI-1 = test: NCI-60 anticancer screening (SRB); format: cell-based; conditions: Homo sapiens; CAKI-1, renal cancer; one dose 10 μM; read-out: Growth Inhibition Percentage (GI %)
786-0 = test: NCI-60 anticancer screening (SRB); format: cell-based; conditions: Homo sapiens; 786-0, renal cancer; one dose 10 μM; read-out: Growth Inhibition Percentage (GI %)
SW-620 = test: NCI-60 anticancer screening (SRB); format: cell-based; conditions: Homo sapiens; SW-620, colon cancer; one dose 10 μM; read-out: Growth Inhibition Percentage (GI %)
KM 12 = test: NCI-60 anticancer screening (SRB); format: cell-based; conditions: Homo sapiens, KM12; KM 12, colon cancer; one dose 10 μM; read-out: Growth Inhibition Percentage (GI %)
MALME-3M = test: NCI-60 anticancer screening (SRB); format: cell-based; conditions: Homo sapiens, melanoma, one dose 10 μM, read-out: Growth Inhibition Percentage (GI %)
HOP-62 = test: NCI-60 anticancer screening (SRB); format: cell-based; conditions: Homo sapiens; HOP-62, NSC lung cancer; one dose 10 μM; read-out: Growth Inhibition Percentage (GI %)
SK-OV-3 = test: NCI-60 anticancer screening (SRB); format: cell-based; conditions: Homo sapiens; SK-OV-3, ovarian cancer; one dose 10 μM; read-out: Growth Inhibition Percentage (GI %)
OVCAR-4 = test: NCI-60 anticancer screening (SRB); format: cell-based; conditions: Homo sapiens; OVCAR-4, ovarian cancer; one dose 10 μM; read-out: Growth Inhibition Percentage (GI %)
NCI 60 cancer cell lines = test: NCI-60 anticancer screening (SRB), whole panel; format: cell-based, human; conditions: mean across the NCI-60 panel; one dose 10 μM
UACC-257 = test: NCI-60 anticancer screening (SRB); format: cell-based; conditions: Homo sapiens; UACC-257, melanoma; one dose 10 μM; read-out: Growth Inhibition Percentage (GI %)
MDA-MB-435 = test: NCI-60 anticancer screening (SRB); format: cell-based; conditions: Homo sapiens; MDA-MB-435, melanoma; one dose 10 μM; read-out: Growth Inhibition Percentage (GI %)
HL-60(TB) = test: NCI-60 anticancer screening (SRB); format: cell-based; conditions: Homo sapiens, leukemia, one dose 10 μM, read-out: Growth Inhibition Percentage (GI %)
PC-3 = test: NCI-60 anticancer screening (SRB); format: cell-based; conditions: Homo sapiens; PC-3, prostate cancer; one dose 10 μM; read-out: Growth Inhibition Percentage (GI %)
HCT-15 = test: NCI-60 anticancer screening (SRB); format: cell-based; conditions: Homo sapiens; HCT-15, colon cancer; one dose 10 μM; read-out: Growth Inhibition Percentage (GI %)
T-47D = test: NCI-60 anticancer screening (SRB); format: cell-based; conditions: Homo sapiens, T47D, breast cancer, one dose 10 μM, read-out: Growth Inhibition Percentage (GI %)
EKVX = test: NCI-60 anticancer screening (SRB); format: cell-based; conditions: Homo sapiens, NSC lung cancer, one dose 10 μM, read-out: Growth Inhibition Percentage (GI %)
SK-MEL-28 = test: NCI-60 anticancer screening (SRB); format: cell-based; conditions: Homo sapiens; SK-MEL-28, melanoma; one dose 10 μM; read-out: Growth Inhibition Percentage (GI %)
OVCAR-8 = test: NCI-60 anticancer screening (SRB); format: cell-based; conditions: Homo sapiens; OVCAR-8, ovarian cancer; one dose 10 μM; read-out: Growth Inhibition Percentage (GI %)
A549/ATCC = test: NCI-60 anticancer screening (SRB); format: cell-based; conditions: Homo sapiens; A549/ATCC, NSC lung cancer; one dose 10 μM; read-out: Growth Inhibition Percentage (GI %)
IGROV1 = test: NCI-60 anticancer screening (SRB); format: cell-based; conditions: Homo sapiens, IGROV-1; IGROV1, ovarian cancer; one dose 10 μM; read-out: Growth Inhibition Percentage (GI %)
NCI-H460 = test: NCI-60 anticancer screening (SRB); format: cell-based; conditions: Homo sapiens; NCI-H460, NSC lung cancer; one dose 10 μM; read-out: Growth Inhibition Percentage (GI %)
K-562 = test: NCI-60 anticancer screening (SRB); format: cell-based; conditions: Homo sapiens, K562; K-562, leukemia; one dose 10 μM; read-out: Growth Inhibition Percentage (GI %)
SR = test: NCI-60 anticancer screening (SRB); format: cell-based; conditions: Homo sapiens, leukemia, one dose 10 μM, read-out: Growth Inhibition Percentage (GI %)
SK-MEL-5 = test: NCI-60 anticancer screening (SRB); format: cell-based; conditions: Homo sapiens; SK-MEL-5, melanoma; one dose 10 μM; read-out: Growth Inhibition Percentage (GI %)
M14 = test: NCI-60 anticancer screening (SRB); format: cell-based; conditions: Homo sapiens; M14, melanoma; one dose 10 μM; read-out: Growth Inhibition Percentage (GI %)
MDA-MB-231 = test: NCI-60 anticancer screening (SRB); format: cell-based; conditions: Homo sapiens; MDA-MB-231, breast cancer; one dose 10 μM; read-out: Growth Inhibition Percentage (GI %)
SNB-75 = test: NCI-60 anticancer screening (SRB); format: cell-based; conditions: Homo sapiens; SNB-75, CNS cancer; one dose 10 μM; read-out: Growth Inhibition Percentage (GI %)
HT29 = test: NCI-60 anticancer screening (SRB); format: cell-based; conditions: Homo sapiens, HT-29; HT29, colon cancer; one dose 10 μM; read-out: Growth Inhibition Percentage (GI %)
HOP-92 = test: NCI-60 anticancer screening (SRB); format: cell-based; conditions: Homo sapiens; HOP-92, NSC lung cancer; one dose 10 μM; read-out: Growth Inhibition Percentage (GI %)
A498 = test: NCI-60 anticancer screening (SRB); format: cell-based; conditions: Homo sapiens; A498, renal cancer; one dose 10 μM; read-out: Growth Inhibition Percentage (GI %)

Structure (SMILES)	inhibition at 10 µM (UACC-62)	inhibition at 10 µM (MOLT-4)	inhibition at 10 µM (CAKI-1)	inhibition at 10 µM (786-0)	melting point	inhibition at 10 µM (SW-620)	inhibition at 10 µM (KM 12)	inhibition at 10 µM (MALME-3M)	inhibition at 10 µM (HOP-62)	inhibition at 10 µM (OVCAR-4)	GI % mean (NCI 60 cancer cell lines)	inhibition at 10 µM (UACC-257)	inhibition at 10 µM (MDA-MB-435)	inhibition at 10 µM (HL-60(TB))	inhibition at 10 µM (PC-3)	inhibition at 10 µM (HCT-15)	inhibition at 10 µM (T-47D)	inhibition at 10 µM (EKVX)	inhibition at 10 µM (SK-MEL-28)	inhibition at 10 µM (OVCAR-8)	also measured
CCOC(=O)C1=C(N)N(c2ccccc2)C2=C(C(=O)CC(C)(C)C2)C1c1ccccc1Cl (racemic) [6a, (±)-Ethyl 2-amino-4–(2-chlorophenyl)-7,7-dimethyl-5-oxo-1-phenyl-1,4,5,6,7,8-hexahydroquinoline-3-carboxylate]	56%	75%	54%	21%	168 to 170 °C	26%	42%	11%	< 10%	26%	33%	28%	27%	123%	71%	51%	48%	26%	19%	17%	inhibition at 10 µM (SK-OV-3): < 10%; inhibition at 10 µM (A549/ATCC): 25%; inhibition at 10 µM (IGROV1): < 10%; inhibition at 10 µM (NCI-H460): 40%; inhibition at 10 µM (K-562): 59%; inhibition at 10 µM (SR): 68%; inhibition at 10 µM (SK-MEL-5): 40%; inhibition at 10 µM (M14): 50%; inhibition at 10 µM (MDA-MB-231): 16%; inhibition at 10 µM (SNB-75): 34%; inhibition at 10 µM (HT29): 45%; inhibition at 10 µM (HOP-92): 32%; inhibition at 10 µM (A498): < 10%
CCOC(=O)C1=C(N)N(c2ccc(Cl)cc2)C2=C(C(=O)CC(C)(C)C2)C1c1ccccc1Cl (racemic) [6c, (±)-Ethyl 2-amino-4–(2-chlorophenyl)-1–(4-chlorophenyl)-7,7-dimethyl-5-oxo-1,4,5,6,7,8-hexahydroquinoline-3-carboxylate]	45%	< 10%	43%	15%	179 to 181 °C	48%	44%	30%	19%	32%	34%	50%	29%	75%	76%	62%	67%	30%	< 10%	30%	inhibition at 10 µM (SK-OV-3): 29%; inhibition at 10 µM (A549/ATCC): 51%; inhibition at 10 µM (IGROV1): < 10%; inhibition at 10 µM (NCI-H460): 58%; inhibition at 10 µM (K-562): < 10%; inhibition at 10 µM (SR): < 10%; inhibition at 10 µM (SK-MEL-5): 66%; inhibition at 10 µM (M14): 28%; inhibition at 10 µM (MDA-MB-231): 24%; inhibition at 10 µM (SNB-75): 17%; inhibition at 10 µM (HT29): 60%; inhibition at 10 µM (HOP-92): 29%; inhibition at 10 µM (A498): < 10%
CCOC(=O)C1=C(N)N(c2ccccc2)C2=C(C(=O)CC(C)(C)C2)C1c1ccccc1Br (racemic) [6d, (±)-Ethyl 2-amino-4–(2-bromophenyl)-7,7-dimethyl-5-oxo-1-phenyl-1,4,5,6,7,8-hexahydroquinoline-3-carboxylate]	36%	25%	36%	13%	220 to 222 °C	< 10%	< 10%	< 10%	< 10%	12%	12%	< 10%	< 10%	34%	33%	17%	30%	11%	< 10%	< 10%	inhibition at 10 µM (SK-OV-3): < 10%; inhibition at 10 µM (A549/ATCC): 13%; inhibition at 10 µM (IGROV1): < 10%; inhibition at 10 µM (NCI-H460): 20%; inhibition at 10 µM (K-562): 20%; inhibition at 10 µM (SR): 14%; inhibition at 10 µM (SK-MEL-5): < 10%; inhibition at 10 µM (M14): 13%; inhibition at 10 µM (MDA-MB-231): < 10%; inhibition at 10 µM (SNB-75): 33%; inhibition at 10 µM (HT29): 17%; inhibition at 10 µM (HOP-92): 27%; inhibition at 10 µM (A498): < 10%
CCOC(=O)C1=C(N)N(c2ccccc2)C2=C(C(=O)CC(C)(C)C2)C1c1ccc([N+](=O)[O-])cc1 (racemic) [8i, (±)-Ethyl 2-amino-4–(4-nitrophenyl)-7,7-dimethyl-5-oxo-1-phenyl-1,4,5,6,7,8-hexahydroquinoline-3-carboxylate]	33%	22%	32%	< 10%	164 to 166 °C	< 10%	< 10%	< 10%	< 10%	< 10%	- ((-) = GI % mean less than 10)	< 10%	< 10%	< 10%	32%	14%	< 10%	14%	< 10%	< 10%	inhibition at 10 µM (A549/ATCC): < 10%; inhibition at 10 µM (IGROV1): < 10%; inhibition at 10 µM (NCI-H460): < 10%; inhibition at 10 µM (K-562): 16%; inhibition at 10 µM (SR): 34%; inhibition at 10 µM (SK-MEL-5): < 10%; inhibition at 10 µM (M14): < 10%; inhibition at 10 µM (MDA-MB-231): < 10%; inhibition at 10 µM (SNB-75): < 10%; inhibition at 10 µM (HT29): < 10%; inhibition at 10 µM (HOP-92): < 10%; inhibition at 10 µM (A498): < 10%
